Assays:
leukemia Jurkat-T = test: MTT toxicity assay, Jurkat; assay type: cell-based, human; details: 24 h incubation, mean ± SD (n = 4)
Description: (§1) Compounds were added at different concentrations in triplicate.

lung A549 = test: MTT toxicity assay, A549; assay type: cell-based, human; details: 24 h incubation, mean ± SD (n = 4)
Description: as §1

prostate DU-145 = test: MTT toxicity assay, DU-145; assay type: cell-based, human; details: 24 h incubation, mean ± SD (n = 4)
Description: as §1

pancreas MiaPaca2 = test: MTT toxicity assay, MiaPaca2; assay type: cell-based, human; details: 24 h incubation, mean ± SD (n = 4)
Description: as §1

[1] = test system: triple negative breast MDA-MB-231; test: MTT toxicity assay, MDA-MB-231; details: read-out: IC50 MDA-MB-231, 24 h incubation, mean ± SD (n = 4)
Description: Cytotoxic activity of the compounds was determined in some human cancer cell lines: leukemia Jurkat-T, lung A549, prostate DU-145, pancreas MiaPaca2, and triple negative breast MDA-MB-231, in comparison to cisplatin.
(§2) A549 (lung carcinoma), MiaPaca2 (pancreatic carcinoma), MDA-MB-231 (Triple negative breast carcinoma) and 293T (non-tumoral embryonic kidney cells) were cultured in DMEM medium supplemented with 10% FCS, L-glutamine and penicillin/streptomycin. Media for A549 cells were also supplemented with 2.2 g/l Na2CO3, 100 μg/ml pyruvate and 5 ml non-essential amino acids (Invitrogen). All these media will be referred as ‘complete medium’ hereinafter. Cell cultures were maintained in a humidified atmosphere of 95% air/5% CO2 at 37° C.
(§3) For toxicity assays cells (5×10^4 for Jurkat cells and 10^4 for adherent cell lines) were seeded in flat-bottom 96-well plates (100 μl/well) in complete medium. Adherent cells were allowed to attach for 24 h prior to addition of cisplatin or tested compounds. Compounds were added at different concentrations in triplicate. Cells were incubated with cisplatin or compounds for 24 h and then cell proliferation was determined by a modification of the MTT-reduction method. […] Finally, formazan crystal was dissolved by adding 100 μl/well ^iPrOH (0.05 M HCl) and gently shaking. The optical density was measured at 570 nm using a 96-well multiscanner autoreader (ELISA). In some experiments total cell number and cell viability were determined by the Trypan-blue exclusion test.

[2] = test system: non-tumorigenic human embryonic kidney cells HEK293T; test: MTT toxicity assay, HEK-293T; assay type: cell-based; details: 24 h incubation, mean ± SD (n = 4)
Description: In order to assess the compounds' selectivity for cancerous cells with respect to normal cell lines, the compounds were also screened for their antiproliferative effects on the non-tumorigenic human embryonic kidney cells HEK293T.
as §2, §3

[3] = test system: human renal proximal tubular cells (RPTC); test: XTT assay for RPTC cells; assay type: cell-based; details: XTT assay 24 hours
Description: Renal proximal tubular cells in primary culture have been described as an in vitro model to study nephrotoxicity.
The human Renal Proximal Tubule Cells (RPTC) a non-tumoral human kidney epithelial cell line (obtained from Lifeline Cell Technology, Frederick, Md., USA) were cultured in Lifeline's RenaLife Medium containing RenaLife LifeFactors with 2.4 mM L-Glutamine, 5 Î¼ g/mL rh insulin, 1.0 Î¼M epinephrine, 10 nM triiodothyronine, 0.1 Î¼ g/mL hydrocortisone hemisuccinate, 10 ng/mL rh EGF, 0.5% FBS and 5 Î¼ g/m transferrin PS (all from Lifeline Cell Technology), at 37° C. in a humidified atmosphere of 95% of air and 5% CO2 (University of Hawaii Cancer Center, Honolulu, Hi., USA). For evaluation of cell viability, cells were seeded at a concentration of 5×10^3 cells/well in 90 μl Lifeline's RenaLife complete medium into tissue culture grade 96-well flat bottom microplates (Thermo Scientific BioLite Microwell Plate, Fisher Scientific, Waltham, Mass., USA) and grown for 24 h. […] The optical density of each well (96-well plates) was quantified using EnVision Multilabel Plate Readers (Perkin Elmer, Waltham Mass., USA) at 450 nm wavelength to measure absorbance. The percentage of surviving cells was calculated from the ratio of absorbance of treated to untreated cells. […]

plasmid pBR322 DNA = test: Plasmid (pBR322) DNA electrophoresis (mobility shift assay); assay type: binding; details: 37° C., twenty hours, Tris/HCl buffer, up to drug/DNA ratio 2.0
Description: For these experiments, cisplatin, all uncoordinated ligands, and the starting dimeric organometallic ruthenium (II) complex [Ru(η^6-p-cymene)Cl]2 were also measured as controls. Plasmid pBR322 presents two main forms, OC (open circular or relaxed) and CCC (covalently closed or supercoiled), which display different electrophoretic mobility. Changes in the electrophoretic mobility of any of the forms upon incubation of the plasmid with a compound are usually interpreted as evidence of interaction. Generally, a drug that induces unwinding of the CCC form will produce a retardation of the electrophoretic mobility, while coiling of the OC form will result in increased mobility.
10 μL aliquots of pBR322 plasmid DNA (20 μg/mL) in buffer (5 mM Tris/HCl, 50 mM NaClO4, pH=7.39) were incubated with different concentrations of the compounds (1-4, 8, 9, [(η^6-p-cymene)Ru(μ-Cl)Cl]2) (in the range 0.25 and 4.0 metal complex:DNAbp) at 37° C. for 20 h in the dark. Samples of free DNA and cisplatin-DNA were prepared as controls. After the incubation period, the samples were loaded onto the 1% agarose gel. The samples were separated by electrophoresis for 1.5 h at 80 V in Tris-acetate/EDTA buffer (TAE). Afterwards, the gel was stained for 30 min. with a solution of GelRed Nucleic Acid stain.

Solubility = details: 1:99 DMSO:H2O
[4] = biological target: Human serum albumin (HSA) (Homo sapiens, UniProt P02768); test: Interaction with HSA by fluorescence spectroscopy (Stern-Volmer); assay type: binding; details: HSA 10 μM, phosphate buffer pH 7.4
Description: The fluorescence data was analyzed by the Stern-Volmer equation.
A solution of each compound (8 mM) in DMSO was prepared and ten aliquots of 2.5 μL were added successively to a solution of HSA (10 μM) in phosphate buffer (pH=7.4) to achieve final metal complex concentrations in the range 10-100 μM. The excitation wavelength was set to 295 nm, and the emission spectra of HSA samples were recorded at room temperature in the range of 300 to 450 nm. The fluorescence intensities of all the metal compounds, the buffer and the DMSO are negligible under these conditions. The fluorescence was measured 240 s. after each addition of compound solution. The data were analyzed using the classical Stern-Volmer equation F0/F=1+KSV[Q].

[5] = Stability in solution by 31P and 1H NMR; air stability; assay type: physicochemical
Description: The stability of the water-soluble complexes was studied by ^31P {^1H} and ^1H NMR spectroscopy in D2O. […] However, as explained elsewhere in this specification, the biological activity of compound 2 is very fast (in 8 hours compound 2 induces 80% of apoptosis on Jurkat cells). Thus, without wishing to be bound to any particular theory, the observed biological activity is believed to mainly come from coordination compound 2 or its hydrolysis product.

human cell lines = test: MTT toxicity assay, all tested human cell lines; assay type: cell-based; details: 24 h incubation
Description: as §1

CT DNA = test: DNA precipitation and quantification of ruthenium by ICP-MS; assay type: binding, calf; set-up: unit not given here
Description: In this experiment, 500 μM concentration DNA solutions were treated with 2 equiv of ruthenium compound 2 and compound 3 for twenty hours at 37° C. to promote DNA precipitation. The samples were then centrifuged, and the resulting pellets were analyzed for DNA and metal concentration.
Stock solutions of compounds 2 and 3 (4 mM in water) and CT DNA (11.56 mM in 5 mM Tris/HCl, 50 mM NaClO4, pH=7.39) were freshly prepared prior to use. 216 μl of DNA stock solution were diluted in 3.53 mL of buffer and 1.25 mL of compound stock solution were then added to achieve 5 mL final volume at concentrations of 500 μM in DNA and 1 mM in metal compound. Each sample was incubated at 37° C. for a period of 20 h, then cooled down to room temperature and centrifuged at 3000 rpm for 15 min. and at 4000 rpm for extra 40 min. The supernatant was separated and analyzed for CT DNA concentration by CD spectroscopy. The resulting pellet was washed twice with ice-cold ethanol (1 mL), centrifuged at RT for 1 min. at 4000 rpm, dried under high vacuum and analyzed for Ru content by ICP-MS. The total amount of DNA in each sample was 0.92 mg. Every experiment was run in duplicate.

Jurkat cells = test: Cell death analysis (PS exposure, mitochondrial membrane potential, Hoechst) in Jurkat cells
Description: The mechanism of cell death induced by compound 2 and compound 3 was explored in Jurkat cells. Nuclei morphology after twenty-four hour incubation with 1 μM solution of compound 2 or compound 3 was analyzed by Hoechst staining. […] Other apoptotic parameters such as phosphatidylserine exposure and mitochondrial membrane potential dissipation were analyzed using fluorescent probes.
To determine whether caspase inhibition prevented or just delayed cell death, experiments were performed in which cells were treated with compound 2 or compound 3 for twenty-four hours in the presence of z-VAD-fmk and then washed and further cultured in fresh medium for twenty-four hours (FIG. 6). PS exposure was analyzed after the first twenty-four hours in the presence of compound+z-VAD-fmk and twenty-four hours after washing.
Apoptosis/necrosis hallmarks of cells treated with compounds 2 and 3 were analyzed by measuring mitochondrial membrane potential and/or exposure of phosphatidylserine. In some experiments the general caspase inhibitor z-VAD-fmk was added at 50 μM 1 h before compounds. For mitochondrial membrane potential determination cells (2.5×10^5 in 200 μl) after treatment with compounds were incubated at 37° C. for 15 min. in ABB (140 mM NaCl, 2.5 mM CaCl2, 10 mM Hepes/NaOH, pH 7.4) containing 60 mM tetramethylrhodamine ethyl ester (TMRE, Molecular Probes). Phosphatidylserine exposure was quantified by labeling cells with AnnexinV-PE or AnnexinV-DY636 (Invitrogen) after treatment with compounds. AnnexinV was added at a concentration of 0.5 μg/mL and cells were incubated at room temperature for 15 min. In all cases, cells were diluted to 1 ml with ABB to be analyzed by flow cytometry (FACScan, BD Bioscience, Spain).

[6] = Jurkat cells, general caspase inhibitor z-VAD-fmk

Sequence of Human serum albumin (HSA) (P02768 25-609): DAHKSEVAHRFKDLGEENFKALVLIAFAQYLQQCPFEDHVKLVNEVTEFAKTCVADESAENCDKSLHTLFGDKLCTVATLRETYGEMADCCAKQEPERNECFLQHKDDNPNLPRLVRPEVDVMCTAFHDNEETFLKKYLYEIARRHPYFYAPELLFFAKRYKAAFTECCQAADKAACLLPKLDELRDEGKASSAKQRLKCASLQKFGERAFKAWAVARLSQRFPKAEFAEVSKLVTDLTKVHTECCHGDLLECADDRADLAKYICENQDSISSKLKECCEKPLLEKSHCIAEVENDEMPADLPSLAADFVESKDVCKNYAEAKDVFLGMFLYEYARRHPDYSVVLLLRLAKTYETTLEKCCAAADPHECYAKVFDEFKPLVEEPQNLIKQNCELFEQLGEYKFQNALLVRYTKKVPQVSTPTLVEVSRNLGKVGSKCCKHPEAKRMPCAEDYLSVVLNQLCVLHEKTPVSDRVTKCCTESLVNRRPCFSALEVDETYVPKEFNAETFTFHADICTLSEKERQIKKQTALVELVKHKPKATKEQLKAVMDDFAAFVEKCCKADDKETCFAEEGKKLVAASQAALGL

For `N.N.[Cl][Pt][Cl]` [Cisplatin, reference compound], which IC50 (leukemia Jurkat-T) is on record?
Its IC50 is 10.8 ± 1.2 µM.

And the IC50 (lung A549)?
Its IC50 is 114 ± 9.1 µM.

What about the IC50 (prostate DU-145) of the same compound?
Its IC50 is 112 ± 33 µM.

And the IC50 (pancreas MiaPaca2)?
The IC50 was 76.5 ± 7.4 µM.

What about the IC50 [1] of the same compound?
The IC50 was 131 ± 18 µM.

And the IC50 [2]?
Its IC50 is 69 ± 6.7 µM.

What about the IC50 [3] of the same compound?
Its IC50 is 46.4 ± 2.46 µM.

What about the “electrophoretic mobility of plasmid pBR322 DNA” value (plasmid pBR322 DNA) of the same compound?
Its value is “able to both increase and decrease the mobility of the OC and the CCC forms”.

With `Cc1ccc(C(C)C)cc1.O=C(N=P12CN3CN(CN(C3)C1)C2)c1cccc[c]1[Ru][Cl]` [Compound 9, [(η^6-p-cymene)Ru{(PTA═N—CO-2-C6H4)-κ-C,N}Cl]] as the compound, how does the IC50 (leukemia Jurkat-T) read?
Its IC50 is 17.7 ± 7.5 µM.

And the IC50 (lung A549)?
The IC50 was greater than 125 µM.

What about the IC50 (prostate DU-145) of the same compound?
The IC50 was 126 ± 28 µM.

And the IC50 (pancreas MiaPaca2)?
The IC50 was 54.5 ± 16 µM.

And the IC50 [1]?
The IC50 was 75.4 ± 9.8 µM.

And the IC50 [2]?
The IC50 was 142 ± 13.1 µM.

What about the “solubility in DMSO:H2O mixtures” value (Solubility) of the same compound?
The value was “soluble in mixtures 1:99 DMSO:H2O in micromolar concentrations”.

What does the source list for “[(η^6-p-cymene)Ru((Ph3P═N—CO-2-C6H4)-κ-C,N)Cl] [Compound 8]”?
IC50 (leukemia Jurkat-T): 2.39 ± 0.27 µM; IC50 (lung A549): 29.9 ± 5.8 µM; IC50 (prostate DU-145): 14.2 ± 4.2 µM; IC50 (pancreas MiaPaca2): 8.2 ± 0.98 µM; IC50 [1]: 7.1 ± 0.11 µM; IC50 [2]: 4.1 ± 0.06 µM; Stern-Volmer constant [4]: 18100 M⁻¹; stability in d^6-DMSO solution [5]: stable for weeks; solubility in DMSO:H2O mixtures (Solubility): soluble in mixtures 1:99 DMSO:H2O in micromolar concentrations

For “[(η^6-p-cymene)Ru([{Cp—P(Ph2)═N—CH2-2-NC5H4}Fe(Cp)]-κ-N,N)Cl]Cl [Compound 4]”, which IC50 (leukemia Jurkat-T) is on record?
The IC50 was 9.3 ± 0.07 µM.

What about the IC50 (lung A549) of the same compound?
Its IC50 is greater than 125 µM.

And the IC50 (prostate DU-145)?
Its IC50 is 148 ± 33 µM.

And the IC50 (pancreas MiaPaca2)?
Its IC50 is greater than 125 µM.

And the IC50 [1]?
The IC50 was greater than 125 µM.

And the IC50 [2]?
Its IC50 is 114 ± 14.8 µM.

What about the “electrophoretic mobility of plasmid pBR322 DNA” value (plasmid pBR322 DNA) of the same compound?
Its value is “no mobility retardation is observed”.

And the “stability in D2O (NMR spectra)” value [5]?
Its value is “does not change for over three days”.

And the “stability in d^6-DMSO solution” value [5]?
Its value is “stable for weeks”.

With [(η^6-p-cymene)Ru(μ-Cl)Cl]2 as the compound, how does the IC50 (human cell lines) read?
The IC50 was greater than 125 µM.

What does the source list for “[(η^6-p-cymene)Ru{(Ph3P═N-8-C9H6N)-κ-N,N}Cl]Cl [Compound 3]”?
IC50 (leukemia Jurkat-T): 0.9 ± 0.32 µM; IC50 (lung A549): 43.3 ± 8 µM; IC50 (prostate DU-145): 6.6 ± 0.85 µM; IC50 (pancreas MiaPaca2): 7 ± 0.4 µM; IC50 [1]: 16.2 ± 0.9 µM; IC50 [2]: 2.2 ± 1.1 µM; electrophoretic mobility of plasmid pBR322 DNA (plasmid pBR322 DNA): no mobility retardation is observed; ruthenium content in DNA precipitate (CT DNA): 2.43±0.18; stability in D2O (NMR spectra) [5]: does not change significantly over time; stability in d^6-DMSO solution [5]: stable for weeks; AnnexinV+ cells, compound + z-VAD-fmk (Jurkat cells; 24 h with compound + z-VAD-fmk, then 24 h in fresh medium after washing): 32%; PS exposure with z-VAD-fmk (Jurkat cells; [6]): completely abrogated; Δψm loss with z-VAD-fmk (Jurkat cells; [6]): 20%; Δψm loss (Jurkat cells; Jurkat cells, without z-VAD-fmk): 40%; Nuclei morphology (Hoechst staining) (Jurkat cells; Jurkat, 24 h incubation with 1 μM solution): chromatin condensation and fragmentation; AnnexinV+ cells, compound alone for twenty-four hours (Jurkat cells; compound alone, 24 h): 28%

What does the source list for “[(η^6-p-cymene)Ru{(Ph3P═N—CO-2-N—C5H4)-κ-N,O}Cl](PF6) [Compound 1]”?
IC50 (leukemia Jurkat-T): 1.1 ± 0.14 µM; IC50 (lung A549): 9.9 ± 1.9 µM; IC50 (prostate DU-145): 1.89 ± 0.64 µM; IC50 (pancreas MiaPaca2): 2.4 ± 0.18 µM; IC50 [1]: 4.91 ± 2.7 µM; IC50 [2]: 2.8 ± 0.2 µM; electrophoretic mobility of plasmid pBR322 DNA (plasmid pBR322 DNA): induce retardation of the mobility of the CCC form; stability in d^6-DMSO solution [5]: stable for weeks

From patent publication US9555049B2, “Arene ruthenium (II) derivatives containing iminophosphorane ligands and their use in cancer therapy” (Research Foundation of the City University of New York, priority 2014, dated 2017)
